Experimental findings from article PMC3886921, “Cofactor-Independent Phosphoglycerate Mutase from Nematodes Has Limited Druggability, as Revealed by Two High-Throughput Screens” (PLoS Neglected Tropical Diseases, 2014) are described below.

The target of data set [1] is T1, cofactor-independent phosphoglycerate mutase (iPGAM) (Brugia malayi, UniProt Q4VWF8).
T1 construct: gene ipgm-1; Full-length, histidine-tagged
T1 sequence (Q4VWF8 1-515): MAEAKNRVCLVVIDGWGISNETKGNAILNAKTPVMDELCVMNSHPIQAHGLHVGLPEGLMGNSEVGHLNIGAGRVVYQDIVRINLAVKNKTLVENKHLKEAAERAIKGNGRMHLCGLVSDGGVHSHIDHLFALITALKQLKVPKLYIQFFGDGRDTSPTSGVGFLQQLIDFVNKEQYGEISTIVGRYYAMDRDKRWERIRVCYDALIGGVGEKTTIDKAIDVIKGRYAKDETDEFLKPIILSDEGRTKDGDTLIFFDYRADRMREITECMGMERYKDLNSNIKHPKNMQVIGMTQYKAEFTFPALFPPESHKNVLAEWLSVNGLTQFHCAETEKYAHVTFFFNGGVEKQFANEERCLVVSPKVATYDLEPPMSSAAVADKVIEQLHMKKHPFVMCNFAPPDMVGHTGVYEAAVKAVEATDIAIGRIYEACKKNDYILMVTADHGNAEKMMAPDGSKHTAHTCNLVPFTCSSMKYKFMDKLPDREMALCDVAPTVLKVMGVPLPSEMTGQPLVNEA
The experiment in a line: coupled enzyme assay (NADH absorbance at […] nm), luminescence (Kinase-Glo) confirmation. It is filed as biochemical. For orientation: Kinase-Glo measures the ATP left after a reaction by luminescence.

Data set [2] addresses T2, cofactor-independent phosphoglycerate mutase (iPGAM) (Caenorhabditis elegans, UniProt G5EFZ1).
T2 construct: gene ipgm-1; Full-length, histidine-tagged
T2 sequence (G5EFZ1 1-539): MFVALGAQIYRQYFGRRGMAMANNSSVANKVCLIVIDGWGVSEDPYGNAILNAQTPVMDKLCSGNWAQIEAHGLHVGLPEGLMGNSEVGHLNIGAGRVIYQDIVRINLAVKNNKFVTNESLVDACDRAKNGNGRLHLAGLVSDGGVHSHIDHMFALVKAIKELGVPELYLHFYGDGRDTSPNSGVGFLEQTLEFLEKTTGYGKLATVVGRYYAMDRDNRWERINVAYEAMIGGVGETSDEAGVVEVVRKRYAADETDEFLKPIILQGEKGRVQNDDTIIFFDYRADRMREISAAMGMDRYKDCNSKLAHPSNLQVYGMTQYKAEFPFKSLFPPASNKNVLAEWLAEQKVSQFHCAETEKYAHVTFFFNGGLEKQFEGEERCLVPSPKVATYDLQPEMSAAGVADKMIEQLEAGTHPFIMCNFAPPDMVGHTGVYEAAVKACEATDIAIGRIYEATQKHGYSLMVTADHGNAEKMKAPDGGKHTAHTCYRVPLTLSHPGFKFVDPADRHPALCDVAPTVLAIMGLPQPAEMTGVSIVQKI
The experiment in a line: HTS coupled enzyme assay at […] ([…] inhibition), re-tested and reconfirmed. Type of data set: biochemical.

Data set [3] deals with T1, cofactor-independent phosphoglycerate mutase (iPGAM). The experiment in a line: coupled enzyme assay (NADH absorbance at […] nm), dose-response; luminescence (Kinase-Glo) confirmation. Type of data set: biochemical.
Substrate in data set [4]: O=C(O)[C@H](O)COP(=O)(O)O
The experiment in a line: enzyme kinetics (Km), coupled assay. It is filed as biochemical, Caenorhabditis elegans. Particulars: Mg2+.

Substrate in data set [5]: O=C(O)[C@H](O)COP(=O)(O)O
In words: enzyme kinetics (Km), coupled assay. The settings on record: Mg2+. Type of data set: biochemical, Brugia malayi.

As usually defined, the IC50 is the concentration at which inhibition is half-maximal. As a reminder, the inhibition is the share of the control response that was lost under treatment. Higher therefore signals strong suppression. Consider `CCc1cc2c[n+](C3CCCCC3)sc2s1` [Genz-2], for which, in data set [1], the half-maximal inhibitory concentration (IC50) is more than 10 µM. The molecule further yielded an inhibition at 10 µM in data set [2] of more than 40%.

In the case of `Nc1cc2cccnc2c2ncccc12` [NCDS-1, 5-amino-1,10-phenanthroline], the IC50 in data set [3] was more than 10 µM.

B1: cofactor-independent phosphoglycerate mutase (iPGAM) (Caenorhabditis elegans) (protein)
chain: MFVALGAQIYRQYFGRRGMAMANNSSVANKVCLIVIDGWGVSEDPYGNAILNAQTPVMDKLCSGNWAQIEAHGLHVGLPEGLMGNSEVGHLNIGAGRVIYQDIVRINLAVKNNKFVTNESLVDACDRAKNGNGRLHLAGLVSDGGVHSHIDHMFALVKAIKELGVPELYLHFYGDGRDTSPNSGVGFLEQTLEFLEKTTGYGKLATVVGRYYAMDRDNRWERINVAYEAMIGGVGETSDEAGVVEVVRKRYAADETDEFLKPIILQGEKGRVQNDDTIIFFDYRADRMREISAAMGMDRYKDCNSKLAHPSNLQVYGMTQYKAEFPFKSLFPPASNKNVLAEWLAEQKVSQFHCAETEKYAHVTFFFNGGLEKQFEGEERCLVPSPKVATYDLQPEMSAAGVADKMIEQLEAGTHPFIMCNFAPPDMVGHTGVYEAAVKACEATDIAIGRIYEATQKHGYSLMVTADHGNAEKMKAPDGGKHTAHTCYRVPLTLSHPGFKFVDPADRHPALCDVAPTVLAIMGLPQPAEMTGVSIVQKI
notes: Full-length, histidine-tagged
A word on the Km: it is the concentration of substrate that gives half-maximal velocity. As to B1, the Michaelis-Menten constant (Km) in data set [4] worked out at 380 µM.

B2: cofactor-independent phosphoglycerate mutase (iPGAM) (Brugia malayi) (protein)
chain: MAEAKNRVCLVVIDGWGISNETKGNAILNAKTPVMDELCVMNSHPIQAHGLHVGLPEGLMGNSEVGHLNIGAGRVVYQDIVRINLAVKNKTLVENKHLKEAAERAIKGNGRMHLCGLVSDGGVHSHIDHLFALITALKQLKVPKLYIQFFGDGRDTSPTSGVGFLQQLIDFVNKEQYGEISTIVGRYYAMDRDKRWERIRVCYDALIGGVGEKTTIDKAIDVIKGRYAKDETDEFLKPIILSDEGRTKDGDTLIFFDYRADRMREITECMGMERYKDLNSNIKHPKNMQVIGMTQYKAEFTFPALFPPESHKNVLAEWLSVNGLTQFHCAETEKYAHVTFFFNGGVEKQFANEERCLVVSPKVATYDLEPPMSSAAVADKVIEQLHMKKHPFVMCNFAPPDMVGHTGVYEAAVKAVEATDIAIGRIYEACKKNDYILMVTADHGNAEKMMAPDGSKHTAHTCNLVPFTCSSMKYKFMDKLPDREMALCDVAPTVLKVMGVPLPSEMTGQPLVNEA
notes: Full-length, histidine-tagged
B2: the Km in data set [5] was determined as 370 µM.
